Data reported in patent US20070219213A1, “Use of Adrenergic N-Phenylpiperazine Antagonists, Pahrmaceutical Compositions Containning Them, and Methods of Preparing Them” (priority 2004, published 2007).

Experiments:
[1] = test system: alpha 1A and alpha 1B adrenoceptors (rabbit aorta, α1A > α1B); details: literature (Yamagishi et al.); cited from earlier work
[2] = test system: alpha 1A adrenoceptor (human prostatic membranes); details: similar models; literature (Motiyama et al.); cited from earlier work
[3] = biological target: T1, alpha 1B subtype (Rattus norvegicus, UniProt P15823); experiment: [3H]prazosin binding assay in rat liver; details: rat liver, α1B; read-out: IC50
T1 construct: from tissue; host or cells: rat liver homogenate/membranes
T1 sequence (P15823 1-515): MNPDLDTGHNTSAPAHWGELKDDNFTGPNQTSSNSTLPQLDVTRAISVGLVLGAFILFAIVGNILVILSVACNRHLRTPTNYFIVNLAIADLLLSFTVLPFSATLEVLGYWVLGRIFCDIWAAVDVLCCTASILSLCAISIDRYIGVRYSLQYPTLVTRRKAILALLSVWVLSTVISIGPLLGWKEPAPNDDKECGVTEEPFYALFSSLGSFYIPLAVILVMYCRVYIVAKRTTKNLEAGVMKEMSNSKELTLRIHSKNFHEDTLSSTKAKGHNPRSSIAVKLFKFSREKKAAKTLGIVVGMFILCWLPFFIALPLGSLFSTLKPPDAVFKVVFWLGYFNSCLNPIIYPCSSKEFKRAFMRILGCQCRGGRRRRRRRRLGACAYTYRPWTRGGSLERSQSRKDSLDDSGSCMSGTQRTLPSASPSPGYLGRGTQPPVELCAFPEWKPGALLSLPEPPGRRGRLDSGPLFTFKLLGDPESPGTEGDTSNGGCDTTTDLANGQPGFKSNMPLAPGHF

[4] = biological target: T2, α1A (Oryctolagus cuniculus, UniProt O02824); experiment: Binding study in rabbit liver; details: rabbit liver, α1A; read-out: IC50
T2 construct: from tissue
T2 sequence (O02824 1-466): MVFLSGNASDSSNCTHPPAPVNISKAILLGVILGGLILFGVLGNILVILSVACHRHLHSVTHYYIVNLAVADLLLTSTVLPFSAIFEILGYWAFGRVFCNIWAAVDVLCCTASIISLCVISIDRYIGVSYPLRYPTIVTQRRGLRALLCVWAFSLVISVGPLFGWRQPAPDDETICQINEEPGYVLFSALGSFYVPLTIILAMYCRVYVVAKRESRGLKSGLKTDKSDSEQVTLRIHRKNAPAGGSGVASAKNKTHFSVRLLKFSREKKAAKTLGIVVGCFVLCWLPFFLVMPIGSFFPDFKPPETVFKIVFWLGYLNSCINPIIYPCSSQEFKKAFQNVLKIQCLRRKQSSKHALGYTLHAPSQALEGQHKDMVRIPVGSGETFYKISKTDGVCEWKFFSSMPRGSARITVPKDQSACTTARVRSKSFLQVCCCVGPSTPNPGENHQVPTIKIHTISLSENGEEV

[5] = biological target: T3, alpha 1D adrenoceptor (rat aorta) (Rattus norvegicus, UniProt P23944); experiment: Vasoconstriction assay in rat aorta induced by norepinephrine; assay type: cell-based; details: pKB, rat aorta, α1D
T3 construct: from tissue; host or cells: rat aorta segments with endothelium
T3 sequence (P23944 1-561): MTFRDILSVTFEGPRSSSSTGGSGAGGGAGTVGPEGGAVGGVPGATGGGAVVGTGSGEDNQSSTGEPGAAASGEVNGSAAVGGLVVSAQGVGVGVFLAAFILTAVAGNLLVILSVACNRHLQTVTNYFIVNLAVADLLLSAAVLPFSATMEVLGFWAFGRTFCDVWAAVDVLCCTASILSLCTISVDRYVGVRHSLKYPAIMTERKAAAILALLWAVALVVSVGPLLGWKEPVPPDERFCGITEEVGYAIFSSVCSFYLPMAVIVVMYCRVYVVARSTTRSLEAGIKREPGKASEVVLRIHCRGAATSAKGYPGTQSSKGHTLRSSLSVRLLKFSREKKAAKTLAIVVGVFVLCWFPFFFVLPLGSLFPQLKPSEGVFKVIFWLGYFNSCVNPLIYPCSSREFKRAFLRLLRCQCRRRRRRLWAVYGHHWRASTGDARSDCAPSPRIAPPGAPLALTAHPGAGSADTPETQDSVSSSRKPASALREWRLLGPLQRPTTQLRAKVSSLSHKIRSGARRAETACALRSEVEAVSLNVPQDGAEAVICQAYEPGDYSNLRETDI
Protocol: Vasoconstriction Assay in Mouse Aorta Induced By Norepinephrine
Aorta segments with endothelium (3 mm), withdrawn from young male rats (250-300 g), were placed in containers containing physiologic solution (NaCl 122 mM, KCl 5 mM, NaHCO3 15 mM, glucose 11.5 mM, MgCl2 1.2 mM, CaCl2 1.25 mM and KH2PO4 1.2 mM), kept at 37° C. under aeration with a mixture of 95% of O2 and 5% of CO2, and submitted to a pre-charge of 5 mN for 60 minutes. During this period, eventual tension adjustments were performed until the stabilization in 0.5 g, always with renewal with physiologic solution. Then, vasoconstriction was induced by 60 mM KCl solution, in each ring, to verify the viability of the organ on the day of experiment. The preparation was submitted to the contraction with norepinephrine (5×10^−5 M) and, then the rings were washed to reach the basal line (0% of vasoconstriction). The procedure was repeated until the obtainment of a constant curve. Later, a curve, using increasing concentrations of norepinephrine (3×10^−8-5×10^−5 M), was performed for each ring, as a positive control. The segments were washed to reach the basal line (0% of vasoconstriction) and incubated with the test compounds, individually, for 30 minutes. A second norepinephrine curve was performed and obtained data compared to the first control curve. […] The aorta rings were used once for each compound.
Determination of the LASSBio 772 Antagonist Potency (pKB) on the Vasoconstriction of Rabbit or Rat Thoracic Aorta.

[6] = test system: phenylephrine vasopressor effects; experiment: Inhibition of phenylephrine vasopressor effects in anesthetized rabbits; assay type: in vivo; details: rabbit, n=5
Protocol: Animal and Homodynamic Measurements:
The experiments were performed with male rabbits weighing 3 kg, from the CECAL (Centro de Criação de Animais de Laboratório) at Fundação Oswaldo Cruz. The animals were anesthetized with sodium pentobarbital (40 mg/kg) in the ear marginal vein, and anesthesia maintenance was obtained with supplemental intravenous (i.v.) doses of 5 mg/kg as necessary. The […] were tracheomized, inserted with a polyethylene canule, and immobilized with pancuronium bromide (1 mg/kg, i.v.), with supplemental doses of 0.2 mg/kg for each hour of experiment and artificially ventilated with a mechanical fan (Rodent ventilator 7025, Ugo Basile) with a volume of 10 ml/kg and frequency from 40 to 50 incursions/min. The right femoral vein was catheterized for drug administration.
The arterial pressure was monitored through abdominal aorta catheter via the right femoral artery and connected to a quartz transductor Hewlett Packard (1290 A), which was connected to an arterial pressure processor and recorder Hewlett Packard (system 7754 with amplifier 8805 B).
The systolic (SAP) and diastolic (DAP) arterial pressures were obtained directly from the records and the average arterial pressure (AAP) was calculated by DAP's Sum with a third of the differential pressure [[…]]. The cardiac frequency was determined by counting the pressure waves, visualized with the speed increase of the recorder paper.
The cardiac debit (DC) was monitored using an electromagnetic probe, connected to a Skalar flowmeter model MDL 1401. After left thoraxatomy, between the second and third ribs, was made an incision in the pericardium and the heart was exposed to enable the visualization and dissection of the ascending aorta for installation of the electromagnetic probe. The systemic vascular resistance (SVR) was calculated as a quotient of the average arterial pressure by the cardiac debit, multiplied by a conversion factor 80 (SVR=AAP/DC×80) and expressed in dyn/seg/cm-5.
At the conclusion of the anesthetic-surgical procedures, a 15-minute period was allowed for stabilization of the homodynamic parameters. Before any pharmacological manipulation the average arterial pressure, cardiac frequency and cardiac debit measurements were obtained. These values were considered basal homodynamic values.
Dose-Response Curve of the Phenylephrine Vasopressor Effect:
After surgical procedures and stabilization of the homodynamic parameters, a dose-response curve of the phenylephrine pressure effects was performed ([…], i.v.), that were named control curves. […]
The results were expressed as average±standard deviation (E.P.M.) The administration effects of LASSBio 772 with regard to the basal values were analyzed through variance analysis (ANOVA) for repeated measurements. […]

[7] = biological target: T4, alpha 1A subtype (Rattus norvegicus, UniProt P43140); design: from tissue; host or cells: rat salivary gland homogenate/membranes; details: 0.06 nM [3H]prazosin (Michel et al.), read-out: IC50 of reference; cited from earlier work
T4 sequence (P43140 1-466): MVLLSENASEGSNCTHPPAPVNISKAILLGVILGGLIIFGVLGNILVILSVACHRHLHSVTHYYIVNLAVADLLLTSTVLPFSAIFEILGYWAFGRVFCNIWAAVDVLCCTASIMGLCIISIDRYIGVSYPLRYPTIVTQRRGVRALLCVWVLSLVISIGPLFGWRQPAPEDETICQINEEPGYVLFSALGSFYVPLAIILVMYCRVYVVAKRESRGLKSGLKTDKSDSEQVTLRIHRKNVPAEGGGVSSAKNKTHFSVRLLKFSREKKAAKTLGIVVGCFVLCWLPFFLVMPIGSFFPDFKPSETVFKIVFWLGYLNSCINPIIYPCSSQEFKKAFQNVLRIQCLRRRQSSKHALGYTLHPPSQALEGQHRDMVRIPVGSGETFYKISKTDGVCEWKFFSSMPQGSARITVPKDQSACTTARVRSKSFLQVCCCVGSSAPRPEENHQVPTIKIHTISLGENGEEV

COc1cc2nc(N3CCN(C(=O)c4ccco4)CC3)nc(N)c2cc1OC [Prazosin, prazosin]
Kb [1]: 1.02 nM | pKB [1]: 9.05 | Kb [2]: 1.45 nM | pKB [2]: 8.84

CCOc1ccccc1OCCN[C@H](C)Cc1ccc(OC)c(S(N)(=O)=O)c1 [tamsulosin]
Kb [2]: 0.2 nM | pKB [2]: 9.68

C[C@H](Cc1cc2c(c(C(N)=O)c1)N(CCCO)CC2)NCCOc1ccccc1OCC(F)(F)F [KMD-3213]
Kb [2]: 0.35 nM | pKB [2]: 9.45

COc1ccccc1N1CCN(CCc2ccccc2)CC1 [LASSBio 772B, 4-Phenethyl-1-(2-methoxy-phenyl)-piperazine]
IC50 [3]: 130 nM | IC50 [4]: 23.9 nM | Kb [5]: 0.02 nM | AAP increase induced by phenylephrine in the presence of compound ([6]; phenylephrine 100 μg/kg i.v.): 9±4% | SVR increase induced by phenylephrine in the presence of compound ([6]; phenylephrine 100 μg/kg i.v.): 15±5% | decrease of DC induced by phenylephrine in the presence of compound ([6]; phenylephrine i.v.): 7±2%

COc1cccc(OC)c1OCCNCC1COc2ccccc2O1 (stereo not drawn) [WB 4101]
IC50 [7]: 0.6 nM
